This note sets out measurements from patent US9150608B2, “Neuro-protective compounds and their use” (Biotechnology Research Corp. Ltd., priority 2010, dated 2015).

The subject of assay [1] is phosphorylated ERK, CREB, Akt, P38, MEK in cortical neurons. Description: Western blot detection of signaling proteins in cortical neurons. The class given is cell-based, rat. The note with it: cortical neurons 7DIV.
The subject of assay [2] is rat cortical neurons cultured in the absence of B27. Description: Cortical neuron survival assay with B27 withdrawal (MTT). It is filed as cell-based. The note with it: for cell survival of cortical neurons in the absence of B27 (MTT): 30 μM, pre-treated 24 hours (FIG. 15); for concentration showing neuroprotective effect in the absence of B27 (MTT): primary cortical neurons 7DIV, dose-dependent study 1-30 μM. The protocol: FIG. 2. Adelostemma gracillimum refined fraction promotes rat cortical neuron survival against B27 withdrawal. Cortical neurons isolated from embryonic day 18 rats were cultured in Neurobasal medium supplemented with 2 % B27. […] A MTT assay was performed 24 hours later. Cell survival is presented as a percentage compared to a DMSO control in the presence of B27 (“CTL with B27”). Assays were conducted in triplicate and repeated at least twice. *=P<0.05.
Primary cortical neurons were cultured in Neurobasal medium and supplemented with B27, a proprietary formula of Life Technologies. The combination of Neurobasal medium and B27 provides a stable growth environment for primary neurons to maturity in vitro. Neurons undergo apoptosis or cell death in the absence of B27. To study the neuroprotective effect of Adelostemma gracillimum refined fraction, neurons of 7DIV were treated with AG-0 and cell survival was measured as mitochondrial activity by the MTT assay.
The cells were then washed with Hanks' solution twice and replaced with test samples that were serial diluted in Neurobasal medium. A tetrazole, 3-(4,5-Dimethylthiazol-2-yl)-2,5-diphenyltetrazolium bromide (MTT, 5 mg/ml) was added to the medium at a ratio of 1:10 after a 2-day incubation. MTT is reduced by living cells into purple formazan and further solubilized in 20% SDS solution; therefore, the colored solution was measured by spectrophotometer and cell viability was quantified.

The subject of the next assay is CREB promoter. The assay is described as follows: CREB promoter assay (luciferase) in cortical neurons. The class given is cell-based, rat. The note with it: cortical neurons 7DIV, 6 hours incubation. The procedure: FIG. 26. GAG-C77 increases CREB-promoter activity in primary cortical neurons. Primary cortical neuronal cultures (7DIV) transfected with a luciferase-CREB promoter construct were treated with GAG-C69 or GAG-C77 (concentration depicted in [μM]). Cell lysates were collected after 6 hours incubation and luciferase activity was measured. BDNF [ng/mL] and rolipram [μM] were used as positive controls. Assays were conducted in triplicate. *=P<0.05; **=P<0.005.
Freshly isolated embryonic cortical neurons were transfected with a luciferase reporter gene (Cre-Luc) linked to CREB activation following the ACM lipofectamine method using Lipofectamine 2000, a cationic liposome based reagent (Invitrogen). […] Transfection was performed using 1 μL Lipofectamine 2000 and 0.4 μg DNA per well. Neurons were then treated with test samples for time periods of 6 hours. After treatment, the cells were washed with ice-cold DPBS and 100 μL of 1× luciferase lysis buffer (Promega) was added. The plates were placed in −20° C. to freeze the cells, after which they were thawed to facilitate lysis. The lysates were transferred onto white bottom plates and assayed for renilla luciferase using the luciferase assay kit (Promega). Increased CREB activation in the neurons leads to an enhanced luciferase production and this was quantified using a Promega GloMax™ 96 microplate luminometer. […]

In another assay the test system is hippocampal neurons. The assay is described as follows: Quantification of spine (dendritic spine morphology). The following applies: hippocampal neurons 14DIV, 10 μM, 24 hr, vs DMSO. It is filed as cell-based, rat. The procedure:
FIG. 38. GAG-C14 modulates spine morphogenesis. Hippocampal neurons were transfected with enhanced green fluorescent protein (EGFP) construct at 7DIV by calcium phosphate precipitation. The GFP-expressing neurons at 14DIV were then treated with 10 μM GAG-C14 or DMSO vehicle control for 24 hr. The dendritic spine morphology of hippocampal neurons was examined by confocal microscopy.
Cultured hippocampal neurons were seeded on 18 mm coverslips coated with poly-D-lysine in 12-well-plates (Falcon). The neurons were then grown in Neurobasal medium (Invitrogen) supplemented with 2% B27 (Invitrogen) and 0.5 mM glutamine. To visualize the morphology of dendritic spines, the neurons were transfected with GFP DNA construct between 7-9 DIV by using calcium phosphate precipitation. To examine the development of dendritic spines, the neurons were treated with the test compound on 14 DIV. The neurons were then fixed with 4% paraformaldehyde and morphology was examined using confocal microscopy. To quantify spine density in cultured hippocampal neurons, a stack of images (z step, 0.5 μm) was collected using a 60× objective. Images were merged and analyzed using MetaMorph software (Universal Imaging Corp). Dendritic spines, defined as protrusions at least 0.5 μm from the dendritic surface, were scored and expressed as per μm length of dendrite. Three dendrites from each neuron was randomly selected and quantified in a double-blinded manner. For each experimental condition, twenty to thirty neurons were analyzed from 3 independent experiments. Data was presented as mean±SEM.

Assay [3] has as its system cyclic AMP response (CRE) element. The assay is described as follows: CRE-dependent transcription assay (luciferase). The note with it: hippocampal neurons 12DIV, 50 μM, 6 hours. The class given is cell-based, rat. The protocol:
FIG. 41. GAG compounds enhance CRE-dependent transcription activity. GAG-C14 (a), GAG-C53 (b), GAG-C63 (c), GAG-C69 (d), GAG-C84 (e), GAG-C111 (f), GAG-C122 (g), GAG-C123 (h), and GAG-C129 (i) induce CRE-dependent transcriptional activity in cultured hippocampal neurons. On the day of cell seeding, hippocampal neurons were transfected with a firefly luciferase reporter plasmid containing cyclic AMP response (CRE)-element. The cells at 12 DIV were then treated with 50 μM of AG compounds for 6 hours. Data are mean±SEM (n=3-4), *=P<0.05, **=P<0.01, and ***=P<0.005 versus vehicle-treated cells (0 μM), student's t test.
Cultured hippocampal neurons were transfected with a firefly luciferase reporter plasmid containing a cyclic AMP response (CRE) element. At 12DIV, the cells were treated with 50 μM of compound for 6 hours, then CRE-dependent transcription activity was assayed by measuring luciferase levels.
Freshly isolated embryonic cortical neurons were transfected with a luciferase reporter gene (Cre-Luc) linked to CREB activation following the ACM lipofectamine method using Lipofectamine 2000, a cationic liposome based reagent (Invitrogen). […] Transfection was performed using 1 μL Lipofectamine 2000 and 0.4 μg DNA per well. Neurons were then treated with test samples for time periods of 6 hours. After treatment, the cells were washed with ice-cold DPBS and 100 μL of 1× luciferase lysis buffer (Promega) was added. The plates were placed in −20° C. to freeze the cells, after which they were thawed to facilitate lysis. The lysates were transferred onto white bottom plates and assayed for renilla luciferase using the luciferase assay kit (Promega). Increased CREB activation in the neurons leads to an enhanced luciferase production and this was quantified using a Promega GloMax™ 96 microplate luminometer. […] BDNF and rolipram were used as positive controls.

The subject of assay [4] is cortical neurons in the absence of B27. The assay is described as follows: Immunocytochemical analysis of neurons after B27 withdrawal. The class given is cell-based, rat. The following applies: 30 μM, pre-treated 24 hours. The procedure: FIG. 10. Immunofluorescence staining of cortical neurons pretreated with Adelostemma gracillimum refined fraction or fraction AG-3 in the absence of B27. […] Cortical neuronal cultures of 7DIV were pre-treated with AG-0 (30 μg/mL), AG-3 (30 μg/mL), or BDNF (50 ng/mL) for 24 hours, then the medium was changed to one lacking B27. Cultures were fixed with 4% paraformaldehyde, immunostained with beta-tubulin type III antibody, and visualized with FITC-conjugated anti-mouse antibody. Cell bodies were highlighted by DAPI staining. DMSO was used as a solvent control. Images are shown at 40× magnification.
FIG. 21. Immunofluorescence staining of GAG-C27-treated cortical neurons in the absence of B27. Cortical neuronal cultures of 7DIV were pre-treated with AG-0 (30 μg/mL), GAG-C27 (30 μM), or BDNF (50 ng/mL) for 24 hours, after which the medium was changed to one lacking B27. Cultures were fixed with 4% paraformaldehyde, immunostained with beta-tubulin type III antibody, and visualized with FITC-conjugated anti-mouse antibody. Cell bodies were highlighted by DAPI staining. DMSO was used as a solvent control. […]
Cortical neurons were plated on 35-mm dishes (NUNC) at a density of 1×10^6 cells per plate using Neurobasal medium (Invitrogen) supplemented with 2% B27 (Invitrogen). […] Cell morphology was then analyzed using a fluorescence microscope with a 40× objective (DMRA; Leica). […]

With `COc1cc(C2Oc3c(OC)cc(C=O)cc3C2C)ccc1O` (centres unmarked) [GAG-C77, 4-hydroxyl-3,3′-dimethyoxyl-4″,7-epoxy-8,5′-oxyneoligna-7′-al], in assay [1] (30 μM), the “ERK phosphorylation time course” value was “significantly induced ERK phosphorylation in cortical neurons from 15 min and persistently to 180 min”. Also, the CREB phosphorylation result in assay [1] (30 μM, 15 min of incubation) is “induced CREB phosphorylation”. For the same compound, in assay [2], the “cell survival of cortical neurons in the absence of B27 (MTT)” value is recorded as “promoted cell survival” and the “concentration showing neuroprotective effect in the absence of B27 (MTT)” value fell in the range of 10 to 30 µM. For the same compound, the “luciferase activity driven by the CREB promoter” value in the assay on CREB promoter was “significantly induce luciferase activity”.

As to `CCCCCCCCCCCCCCCC(=O)OCC(O)CO` (centres unmarked) [GAG-C14, 2,3-dihydroxypropyl palmitate], in the assay on hippocampal neurons, the “frequency / percentage of filopodia” value is “reduction in the frequency of filopodia”, the “percentage of large spines (head>1 μm)” value is given as “significantly increased” and the spine density entry is reported as “increase in spine density”. Also, in assay [1] (10 μM), the AKT protein phosphorylation result was “no observable effect”; the “ERK phosphorylation time course” value was “induced ERK phosphorylation in cortical neurons after 15 min and the effect remained for 90 min”. Moreover, the “CRE-dependent transcription activity (luciferase)” value in assay [3] was “enhances CRE-dependent transcription”.

As to “3-O-β-D-Cymaropyranose-(1→4)-β-D-Digitoxopyranose-12-cis-cinnamyl-20-acetyl-8,14-seco-sacrostin [GAG-C27]”, the “protection from cell death after B27 withdrawal (immunofluorescence staining)” value in assay [4] is given as “protected cortical neurons from cell death”. Besides, in assay [1] (10 μM), the AKT protein phosphorylation entry is given as “no effect” and the “ERK phosphorylation time course” value is listed as “induced ERK phosphorylation in cortical neurons after 15 min, which was sustained for 60 min”. In assay [1] (10 μM, after 30 min of incubation), the “phosphorylated P38” value is listed as “reduction”. Besides, in assay [2], the “cell survival of cortical neurons in the absence of B27 (MTT)” value was “promoted cell survival” and the “concentration showing neuroprotective effect in the absence of B27 (MTT)” value came out at 30 µM.
